Data on six compounds can be found in ChEMBL document CHEMBL1133999, “3-Deoxy-3-substituted-D-myo-inositol imidazolyl ether lipid phosphates and carbonate as inhibitors of the phosphatidylinositol 3-kinase pathway and cancer cell growth” (Bioorg Med Chem Lett, 2001).

The nature of data set [1]: Partition coefficient (logP). The format is physicochemical. Particulars: octanol/water.
In data set [2] the target is Serine/threonine-protein kinase AKT (Homo sapiens, UniProt P31751+Q9Y243+P31749). As to the kind of experiment: Inhibition of Akt (proto-oncogenic serine/threonine) kinase. It is filed as protein assay.
Another data set deals with HT-29. As to the kind of experiment: Inhibition of human colon carcinoma (HT-29) cell proliferation. It is filed as functional, cell-based.
For the next data set, the system named is MCF7. As to the kind of experiment: Inhibition of MCF-7 (breast) cancer cell proliferation. It is filed as functional, cell-based. The conditions noted are these: Homo sapiens.
The test system of another data set is NIH3T3. As to the kind of experiment: Inhibition of NIH3T3 cell proliferation. The format is functional, cell-based. Particulars: Mus musculus.
In data set [3] the target is PI3-kinase p110-alpha/p85-alpha (Homo sapiens, UniProt P42336). Description: Inhibition of […]/p85 PI3-kinase (phosphatidylinositol 3-kinase). It is filed as protein-complex assay.
PI3-kinase p110-alpha/p85-alpha, sequence (P27986 whole entry): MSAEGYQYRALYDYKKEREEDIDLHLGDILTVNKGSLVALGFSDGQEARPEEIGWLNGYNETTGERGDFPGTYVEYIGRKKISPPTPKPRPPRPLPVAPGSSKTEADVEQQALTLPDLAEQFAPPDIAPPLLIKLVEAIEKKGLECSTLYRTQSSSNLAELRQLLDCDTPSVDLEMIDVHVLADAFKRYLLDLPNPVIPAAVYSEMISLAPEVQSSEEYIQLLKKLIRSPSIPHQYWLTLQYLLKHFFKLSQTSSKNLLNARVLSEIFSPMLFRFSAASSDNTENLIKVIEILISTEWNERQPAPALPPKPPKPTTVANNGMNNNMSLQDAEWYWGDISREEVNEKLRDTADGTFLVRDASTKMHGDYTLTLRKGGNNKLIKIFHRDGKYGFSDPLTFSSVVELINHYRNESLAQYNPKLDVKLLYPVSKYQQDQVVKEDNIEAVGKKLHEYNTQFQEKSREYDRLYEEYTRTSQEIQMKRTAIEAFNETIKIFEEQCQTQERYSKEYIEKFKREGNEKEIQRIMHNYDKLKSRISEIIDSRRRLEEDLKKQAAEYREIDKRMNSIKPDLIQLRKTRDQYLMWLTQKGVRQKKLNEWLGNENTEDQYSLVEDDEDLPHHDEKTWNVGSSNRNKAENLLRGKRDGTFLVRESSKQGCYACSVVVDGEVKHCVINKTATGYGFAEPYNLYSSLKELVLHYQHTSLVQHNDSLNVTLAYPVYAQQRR
PI3-kinase p110-alpha/p85-alpha, sequence (P42336 whole entry): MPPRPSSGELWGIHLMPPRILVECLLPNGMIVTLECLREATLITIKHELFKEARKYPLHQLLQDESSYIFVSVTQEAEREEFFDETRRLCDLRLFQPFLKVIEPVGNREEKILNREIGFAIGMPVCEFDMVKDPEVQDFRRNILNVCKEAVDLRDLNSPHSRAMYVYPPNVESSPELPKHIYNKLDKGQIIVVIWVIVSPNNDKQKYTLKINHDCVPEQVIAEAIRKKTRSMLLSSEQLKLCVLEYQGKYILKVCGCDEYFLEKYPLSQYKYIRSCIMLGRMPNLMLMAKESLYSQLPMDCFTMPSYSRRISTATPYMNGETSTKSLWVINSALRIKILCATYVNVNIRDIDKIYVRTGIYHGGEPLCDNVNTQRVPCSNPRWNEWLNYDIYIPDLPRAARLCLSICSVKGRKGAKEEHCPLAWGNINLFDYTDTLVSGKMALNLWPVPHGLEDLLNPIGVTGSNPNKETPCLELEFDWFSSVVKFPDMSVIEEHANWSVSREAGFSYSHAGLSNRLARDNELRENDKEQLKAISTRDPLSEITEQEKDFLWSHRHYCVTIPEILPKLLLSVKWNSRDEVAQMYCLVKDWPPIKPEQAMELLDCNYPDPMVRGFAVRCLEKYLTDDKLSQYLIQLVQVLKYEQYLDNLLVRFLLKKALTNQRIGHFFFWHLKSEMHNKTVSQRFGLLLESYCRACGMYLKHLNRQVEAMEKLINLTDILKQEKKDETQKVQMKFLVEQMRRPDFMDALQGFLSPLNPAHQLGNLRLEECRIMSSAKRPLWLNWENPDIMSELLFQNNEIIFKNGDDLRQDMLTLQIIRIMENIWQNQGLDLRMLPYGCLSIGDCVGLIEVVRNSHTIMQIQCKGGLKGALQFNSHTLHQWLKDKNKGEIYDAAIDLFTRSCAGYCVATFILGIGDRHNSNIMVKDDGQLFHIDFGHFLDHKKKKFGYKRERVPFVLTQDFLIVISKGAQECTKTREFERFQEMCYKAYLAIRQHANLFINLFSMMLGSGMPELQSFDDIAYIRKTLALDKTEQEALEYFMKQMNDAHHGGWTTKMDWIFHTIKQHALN

On to `CCCCCCCCCCCCCCCCCCOC[C@H](COP(=O)(O)OC1[C@@H](O)[C@@H](O)[C@H](O)[C@H](CO)[C@H]1O)n1ccnc1` (single isomer, unassigned), for which the logP (as a rule, a log measure of how a compound divides between an organic and an aqueous phase) in data set [1] amounted to 3.22. In addition, the IC50 (in general, the point on the concentration scale where inhibition reaches its midpoint) was determined as 20.5 µM in data set [2]; 6.5 µM in the data set with HT-29; 2 µM with MCF7; 8.2 µM with NIH3T3; 7.9 µM in data set [3].

As for `CCCCCCCCCCCCCCCCCCOC[C@H](COP(=O)(O)OC1[C@H](O)C[C@@H](O)[C@H](O)[C@@H]1O)n1ccnc1` (single isomer, unassigned), the IC50 was 37.5 µM in data set [2]; 15 µM in the data set with HT-29; 6 µM with MCF7; 6.5 µM in the data set on NIH3T3; 14.5 µM in data set [3].

For `CCCCCCCCCCCCCCCCCCOC[C@H](COC(=O)OC1[C@@H](O)[C@@H](O)[C@H](O)[C@H](CO)[C@H]1O)OC` (single isomer, unassigned), the IC50 was 5 µM in data set [2]; 10 µM with HT-29; 1.25 µM in the data set with MCF7; 2 µM with NIH3T3; 83 µM in data set [3].

Compound `CCCCCCCCCCCCCCCCCCOC[C@H](COP(=O)(O)OC1[C@H](O)C[C@@H](O)[C@H](O)[C@@H]1O)OC` (single isomer, unassigned) gave a logP in data set [1] of 4.44. Also, the half-inhibitory concentration (IC50) in the data set with NIH3T3 came out at 4.5 µM; in data set [3], 14.8 µM.

As for `CCCCCCCCCCCCCCCCCCOC[C@H](COC(=O)OC1[C@@H](O)[C@@H](O)[C@H](O)[C@H](CO)[C@@H]1O)n1ccnc1` (single isomer, unassigned), the IC50 was 15 µM in data set [2]; 15 µM with HT-29; 20 µM with MCF7; 11.5 µM in the data set on NIH3T3; 49.5 µM in data set [3].

`CCCCCCCCCCCCCCCCCCOC[C@H](COP(=O)(O)OC1[C@@H](O)[C@@H](O)[C@H](O)[C@H](CO)[C@H]1O)OC` (single isomer, unassigned): the IC50 in data set [2] amounted to 7.8 µM; with HT-29, 4.5 µM; in the data set with MCF7, 5 µM; with NIH3T3, 2 µM; in data set [3], 31 µM.
